Test results taken from paper PMC4503722, “Novel Phenotypic Outcomes Identified for a Public Collection of Approved Drugs from a Publicly Accessible Panel of Assays” (PLoS ONE, 2015).
Read-outs that look alike come from different tables or passages of the source.

Legend:
[1] = tested on: endothelial tube formation in co-cultures of ECFCs and ADSCs treated with VEGF; assay: cells; type: cell-based, human
[2] = tested on: nuclear β-catenin in C2C12 cells; assay: cells; type: cell-based
INS-1E cells = assay: cells; type: cell-based, rat
NCI-H716 cells = assay: cells; type: cell-based, Human
HeLa cells = assay: cells; type: cell-based; conditions: read-out: CellCycle G2/M
DLD-1 = assay: cells; type: cell-based
SW480 = assay: cells; type: cell-based
HCT116 = assay: cells; type: cell-based
[3] = tested on: HCT116 cells treated with a GSK3β inhibitor; assay: cells; type: cell-based
Colo320 = assay: cells; type: cell-based
HT-29 = assay: cells; type: cell-based
RKO = assay: cells; type: cell-based
SNU-C1 = assay: cells; type: cell-based
hp70S6K1 (RPS6KB1) = target: T1, hp70S6K1 (RPS6KB1) (Homo sapiens, UniProt P23443); assay: Cerep LANCE kinase assay hp70S6K1 (S1 assay 31); type: biochemical; conditions: read-out: p70S6K1
T1 construct: purchased Cerep (LANCE kinase assay platform, contract assay)
T1 sequence (P23443 whole entry): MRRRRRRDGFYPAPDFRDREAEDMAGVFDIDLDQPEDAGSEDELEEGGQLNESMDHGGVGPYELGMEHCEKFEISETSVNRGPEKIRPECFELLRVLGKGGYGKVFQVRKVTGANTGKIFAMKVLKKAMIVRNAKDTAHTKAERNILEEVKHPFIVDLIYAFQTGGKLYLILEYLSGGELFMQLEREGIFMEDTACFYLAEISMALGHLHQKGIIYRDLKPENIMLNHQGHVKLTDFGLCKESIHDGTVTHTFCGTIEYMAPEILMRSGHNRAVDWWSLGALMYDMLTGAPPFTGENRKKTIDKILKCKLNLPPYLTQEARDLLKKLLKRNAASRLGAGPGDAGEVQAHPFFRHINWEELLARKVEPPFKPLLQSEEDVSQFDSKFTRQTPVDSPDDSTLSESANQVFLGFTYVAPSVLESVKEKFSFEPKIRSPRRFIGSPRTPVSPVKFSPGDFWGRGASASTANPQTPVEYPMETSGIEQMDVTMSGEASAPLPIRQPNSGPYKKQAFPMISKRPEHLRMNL

hKDR = target: T2, hKDR (Homo sapiens, UniProt P35968); assay: Cerep LANCE kinase assay hKDR (S1 assay 32); type: biochemical; conditions: read-out: KDR
T2 construct: purchased Cerep (LANCE kinase assay platform, contract assay)
T2 sequence (P35968 20-1356): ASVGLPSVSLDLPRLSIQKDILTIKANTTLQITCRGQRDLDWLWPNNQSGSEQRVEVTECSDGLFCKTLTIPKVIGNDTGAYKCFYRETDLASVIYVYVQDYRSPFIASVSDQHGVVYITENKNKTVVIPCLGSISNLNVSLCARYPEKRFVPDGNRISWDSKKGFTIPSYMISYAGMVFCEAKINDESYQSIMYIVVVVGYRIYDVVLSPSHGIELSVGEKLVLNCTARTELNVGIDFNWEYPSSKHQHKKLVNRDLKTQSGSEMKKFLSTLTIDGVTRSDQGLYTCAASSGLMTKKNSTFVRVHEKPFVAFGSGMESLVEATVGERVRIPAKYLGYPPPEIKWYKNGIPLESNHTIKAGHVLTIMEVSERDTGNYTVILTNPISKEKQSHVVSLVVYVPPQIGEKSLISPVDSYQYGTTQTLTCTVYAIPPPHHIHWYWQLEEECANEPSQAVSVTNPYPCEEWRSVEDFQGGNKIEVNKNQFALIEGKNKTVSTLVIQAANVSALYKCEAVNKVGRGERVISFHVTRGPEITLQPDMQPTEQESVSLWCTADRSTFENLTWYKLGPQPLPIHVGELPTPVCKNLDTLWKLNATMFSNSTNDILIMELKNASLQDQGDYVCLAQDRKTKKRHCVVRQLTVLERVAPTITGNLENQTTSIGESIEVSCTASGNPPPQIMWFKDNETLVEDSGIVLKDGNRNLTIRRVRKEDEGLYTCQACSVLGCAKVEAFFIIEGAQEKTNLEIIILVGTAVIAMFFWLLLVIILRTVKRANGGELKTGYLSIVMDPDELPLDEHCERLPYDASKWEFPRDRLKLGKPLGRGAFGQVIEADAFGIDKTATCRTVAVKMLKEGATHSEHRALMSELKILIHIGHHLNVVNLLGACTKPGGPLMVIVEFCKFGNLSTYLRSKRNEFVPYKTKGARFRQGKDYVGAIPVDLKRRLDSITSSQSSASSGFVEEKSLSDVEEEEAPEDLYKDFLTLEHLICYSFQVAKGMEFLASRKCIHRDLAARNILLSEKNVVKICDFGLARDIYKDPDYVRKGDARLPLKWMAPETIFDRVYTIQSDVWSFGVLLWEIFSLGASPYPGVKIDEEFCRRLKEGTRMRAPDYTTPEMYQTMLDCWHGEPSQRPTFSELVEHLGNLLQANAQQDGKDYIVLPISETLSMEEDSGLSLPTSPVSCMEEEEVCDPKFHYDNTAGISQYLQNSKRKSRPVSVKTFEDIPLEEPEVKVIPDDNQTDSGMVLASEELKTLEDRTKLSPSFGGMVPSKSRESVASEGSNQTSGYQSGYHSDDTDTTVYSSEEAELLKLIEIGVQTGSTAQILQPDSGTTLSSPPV

hJAK2 = target: T3, hJAK2 (Homo sapiens, UniProt O60674); assay: Cerep LANCE kinase assay hJAK2 (S1 assay 33); type: biochemical; conditions: read-out: JAK2
T3 construct: purchased Cerep (LANCE kinase assay platform, contract assay)
T3 sequence (O60674 whole entry): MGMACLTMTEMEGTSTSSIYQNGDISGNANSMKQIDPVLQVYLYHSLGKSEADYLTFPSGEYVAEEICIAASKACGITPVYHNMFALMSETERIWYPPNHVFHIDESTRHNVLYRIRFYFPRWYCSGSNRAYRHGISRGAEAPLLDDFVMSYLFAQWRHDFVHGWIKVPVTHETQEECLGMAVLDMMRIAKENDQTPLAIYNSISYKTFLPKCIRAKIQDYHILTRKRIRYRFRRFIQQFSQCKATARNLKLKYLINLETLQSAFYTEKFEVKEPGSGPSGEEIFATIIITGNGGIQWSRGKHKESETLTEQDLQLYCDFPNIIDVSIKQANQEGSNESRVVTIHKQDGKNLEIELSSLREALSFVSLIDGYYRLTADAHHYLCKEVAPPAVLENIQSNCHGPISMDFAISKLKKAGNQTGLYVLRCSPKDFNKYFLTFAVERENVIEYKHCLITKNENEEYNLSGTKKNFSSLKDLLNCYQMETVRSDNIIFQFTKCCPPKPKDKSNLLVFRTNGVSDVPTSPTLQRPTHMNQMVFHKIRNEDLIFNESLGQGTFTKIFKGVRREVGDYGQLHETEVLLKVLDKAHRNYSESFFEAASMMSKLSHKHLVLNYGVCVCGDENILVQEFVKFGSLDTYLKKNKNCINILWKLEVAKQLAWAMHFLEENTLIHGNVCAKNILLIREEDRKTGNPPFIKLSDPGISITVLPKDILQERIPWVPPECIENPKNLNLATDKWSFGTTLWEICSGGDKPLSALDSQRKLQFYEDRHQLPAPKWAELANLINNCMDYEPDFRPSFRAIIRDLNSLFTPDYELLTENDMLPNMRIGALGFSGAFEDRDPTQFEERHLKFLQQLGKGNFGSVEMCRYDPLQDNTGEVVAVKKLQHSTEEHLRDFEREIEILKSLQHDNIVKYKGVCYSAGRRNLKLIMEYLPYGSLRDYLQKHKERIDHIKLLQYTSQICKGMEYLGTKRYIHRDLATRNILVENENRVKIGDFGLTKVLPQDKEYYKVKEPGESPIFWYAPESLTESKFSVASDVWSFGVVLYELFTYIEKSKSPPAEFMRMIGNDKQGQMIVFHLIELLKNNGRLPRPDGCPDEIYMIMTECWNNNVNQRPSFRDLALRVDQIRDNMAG

hGSK3b = target: T4, hGSK3b (Homo sapiens, UniProt P49841); assay: Cerep LANCE kinase assay hGSK3b (S1 assay 34); type: biochemical; conditions: read-out: GSK3b
T4 construct: purchased Cerep (LANCE kinase assay platform, contract assay)
T4 sequence (P49841 whole entry): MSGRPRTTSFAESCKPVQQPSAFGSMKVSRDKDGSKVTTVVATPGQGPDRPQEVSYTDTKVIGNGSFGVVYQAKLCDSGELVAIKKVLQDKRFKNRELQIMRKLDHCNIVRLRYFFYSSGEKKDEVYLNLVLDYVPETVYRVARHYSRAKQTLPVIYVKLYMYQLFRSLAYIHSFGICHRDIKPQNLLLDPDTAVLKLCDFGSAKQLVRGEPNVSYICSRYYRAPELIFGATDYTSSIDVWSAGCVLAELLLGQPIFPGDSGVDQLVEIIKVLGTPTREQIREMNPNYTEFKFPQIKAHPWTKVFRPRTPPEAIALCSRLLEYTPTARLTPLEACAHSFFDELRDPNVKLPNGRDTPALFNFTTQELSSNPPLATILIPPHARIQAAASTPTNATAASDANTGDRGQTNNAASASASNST

hFLT3 = target: T5, hFLT3 (Homo sapiens, UniProt P36888); assay: Cerep LANCE kinase assay hFLT3 (S1 assay 35); type: biochemical; conditions: read-out: FLT3
T5 construct: purchased Cerep (LANCE kinase assay platform, contract assay)
T5 sequence (P36888 27-993): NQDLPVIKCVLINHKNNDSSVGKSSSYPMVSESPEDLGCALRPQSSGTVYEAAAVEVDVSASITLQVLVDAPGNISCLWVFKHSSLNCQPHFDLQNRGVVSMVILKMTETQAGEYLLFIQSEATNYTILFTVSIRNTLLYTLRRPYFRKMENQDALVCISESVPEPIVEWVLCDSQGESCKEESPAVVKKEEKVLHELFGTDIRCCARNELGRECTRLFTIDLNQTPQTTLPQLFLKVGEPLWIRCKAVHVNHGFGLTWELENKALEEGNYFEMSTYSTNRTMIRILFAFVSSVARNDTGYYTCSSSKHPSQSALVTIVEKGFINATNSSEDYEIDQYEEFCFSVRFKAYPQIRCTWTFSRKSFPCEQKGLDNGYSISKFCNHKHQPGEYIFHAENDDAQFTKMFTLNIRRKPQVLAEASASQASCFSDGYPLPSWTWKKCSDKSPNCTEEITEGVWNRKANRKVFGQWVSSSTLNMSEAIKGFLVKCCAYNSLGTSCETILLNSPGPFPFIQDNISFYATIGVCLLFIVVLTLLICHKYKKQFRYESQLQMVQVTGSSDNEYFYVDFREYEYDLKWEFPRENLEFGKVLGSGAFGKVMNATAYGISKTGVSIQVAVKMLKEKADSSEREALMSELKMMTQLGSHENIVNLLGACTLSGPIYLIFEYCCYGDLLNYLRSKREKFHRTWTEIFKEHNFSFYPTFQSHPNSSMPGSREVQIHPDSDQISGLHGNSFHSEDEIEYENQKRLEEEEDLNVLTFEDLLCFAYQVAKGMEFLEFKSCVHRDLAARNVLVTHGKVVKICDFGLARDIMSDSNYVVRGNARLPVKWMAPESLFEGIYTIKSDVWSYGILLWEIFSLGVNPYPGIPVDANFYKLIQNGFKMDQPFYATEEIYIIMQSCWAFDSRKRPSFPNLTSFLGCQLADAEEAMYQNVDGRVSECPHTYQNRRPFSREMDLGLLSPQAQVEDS

[4] = Homo sapiens, IC50 / EC50; endothelial tube area, ADSC/ECFC co-culture; read-out: Anti-Angiogenesis
[5] = Mus musculus, C2C12, IC50 / EC50; C2C12 beta-catenin translocation; read-out: Wnt Pathway
[6] = Rattus norvegicus; IC50 / EC50; INS-1E; read-out: Insulin Secretion
[7] = Homo sapiens; IC50 / EC50; NCI-H716; read-out: GLP 1 Secretion
[8] = Homo sapiens, HeLa, IC50 / EC50, HeLa
[9] = Homo sapiens, DLD-1, read-out: Basal_Viability ATP DLD-1
[10] = Homo sapiens, SW480, basal, read-out: Basal_Viability ATP SW480
[11] = Homo sapiens, HCT-116, read-out: Basal_Viability ATP HCT116
[12] = Homo sapiens, HCT-116, GSK3b inhibitor pretreated, read-out: GSK3b inh pretreated_Viability ATP HCT116
[13] = Homo sapiens, HT-29; read-out: Basal_Viability ATP HT-29
[14] = Homo sapiens, RKO; read-out: Basal_Viability ATP RKO
[15] = Homo sapiens, SNU-C1, read-out: Basal_Viability ATP SNU-C1
[16] = Homo sapiens, COLO 320, read-out: Basal_Viability ATP Colo 320
[17] = Homo sapiens, read-out: Anti-Angiogenesis
[18] = Mus musculus, C2C12, read-out: Wnt Pathway
[19] = Rattus norvegicus, INS-1E, read-out: Insulin Secretion
[20] = Homo sapiens, NCI-H716, read-out: GLP 1 Secretion
[21] = Homo sapiens, SW480, read-out: Basal_Viability ATP SW480
[22] = Homo sapiens, HCT-116, read-out: GSK3b inh pretreated_Viability ATP HCT116
[23] = Homo sapiens, HT-29, read-out: Basal_Viability ATP HT-29
[24] = Homo sapiens, RKO, read-out: Basal_Viability ATP RKO

SMILES | IC50 (hp70S6K1 (RPS6KB1)) [µM] | IC50 (hKDR) [µM] | IC50 (DLD-1; [9]) [µM] | IC50 (HCT116; [11]) [µM] | IC50 (SNU-C1; [15]) [µM] | IC50 (Colo320; [16]) [µM] | IC50 [1, 17] [µM] | EC50 [2, 18] [µM] | EC50 (INS-1E cells; [19]) [µM] | EC50 (NCI-H716 cells; [20]) [µM] | EC50 (HeLa cells; Homo sapiens, HeLa) [µM] | IC50 (SW480; [21]) [µM] | IC50 [3, 22] [µM] | IC50 (HT-29; [23]) [µM] | IC50 (RKO; [24]) [µM] | IC50 (hp70S6K1 (RPS6KB1); kinase assay) [µM] | IC50 (hKDR; kinase assay) [µM] | IC50 (hJAK2; kinase assay) [µM] | IC50 (hGSK3b; kinase assay) [µM] | IC50 (hFLT3; kinase assay) [µM] | further results
CC(=O)Oc1ccc(C2(c3ccc(OC(C)=O)cc3)Oc3ccccc3NC2=O)cc1 [Bisoxatin diacetate] | > 20 | > 20 |  |  |  |  |  |  |  |  |  |  |  |  |  |  |  |  |  |  | IC50 ([1]; read-out: Anti-Angiogenesis): 2.27 µM; EC50 ([2]; read-out: Wnt Pathway): 14 µM; EC50 (INS-1E cells; read-out: Insulin Secretion): > 20 µM; EC50 (NCI-H716 cells; read-out: GLP 1 Secretion): > 10 µM; EC50 (HeLa cells): > 10 µM; IC50 (DLD-1; read-out: Basal_Viability ATP DLD-1): 19.7 µM; IC50 (SW480; read-out: Basal_Viability ATP SW480): 9.19 µM; IC50 (HCT116; read-out: Basal_Viability ATP HCT116): 2.42 µM; IC50 ([3]; read-out: GSK3b inh pretreated_Viability ATP HCT116): 3.26 µM; IC50 (Colo320; read-out: Basal_Viability ATP Colo 320): > 20 µM; IC50 (HT-29; read-out: Basal_Viability ATP HT-29): > 20 µM; IC50 (RKO; read-out: Basal_Viability ATP RKO): 9.23 µM; IC50 (SNU-C1; read-out: Basal_Viability ATP SNU-C1): > 20 µM; IC50 (hJAK2): > 20 µM; IC50 (hGSK3b): > 20 µM; IC50 (hFLT3): > 20 µM
COc1ccc2cc1Oc1ccc(cc1)C[C@H]1c3c(cc4c(c3Oc3cc5c(cc3OC)CCN(C)[C@@H]5C2)OCO4)CCN1C [Cepharanthine] | > 20 | > 20 | 12.4 | 9.54 | 7.48 |  |  |  |  |  |  |  |  |  |  |  |  |  |  |  | IC50 [1, 4]: 3.02 µM; EC50 [2, 5]: 2.05 µM; EC50 (INS-1E cells; [6]): > 10 µM; EC50 (NCI-H716 cells; [7]): > 10 µM; EC50 (HeLa cells; [8]): > 10 µM; IC50 (SW480; [10]): 0.308 µM; IC50 [3, 12]: 3.57 µM; IC50 (Colo320; Homo sapiens, COLO 320; read-out: Basal_Viability ATP Colo 320): 1.43 µM; IC50 (HT-29; [13]): 1.36 µM; IC50 (RKO; [14]): 3.79 µM; IC50 (hJAK2): > 20 µM; IC50 (hGSK3b): > 20 µM; IC50 (hFLT3): > 20 µM
COc1cccc2c1C(=O)c1c(O)c3c(c(O)c1C2=O)C[C@@](O)(C(C)=O)C[C@@H]3O[C@H]1C[C@H](N)[C@H](O)[C@H](C)O1 [Daunorubicin] | > 20 | > 20 |  |  |  | 9.25 |  |  |  |  |  |  |  |  |  |  |  |  |  |  | IC50 [1, 4]: > 10 µM; EC50 [2, 5]: 0.0061 µM; EC50 (INS-1E cells; [6]): > 10 µM; EC50 (NCI-H716 cells; [7]): > 10 µM; EC50 (HeLa cells; [8]): 0.0465 µM; IC50 (DLD-1; Homo sapiens, DLD-1, basal, read-out: Basal_Viability ATP DLD-1): 0.188 µM; IC50 (SW480; [10]): 1.47 µM; IC50 (HCT116; Homo sapiens, HCT-116, basal, read-out: Basal_Viability ATP HCT116): 0.0509 µM; IC50 [3, 12]: 0.0554 µM; IC50 (HT-29; [13]): 0.648 µM; IC50 (RKO; [14]): 0.118 µM; IC50 (SNU-C1; Homo sapiens, SNU-C1, basal, read-out: Basal_Viability ATP SNU-C1): 0.338 µM; IC50 (hJAK2): > 20 µM; IC50 (hGSK3b): > 20 µM; IC50 (hFLT3): > 20 µM
Oc1c(I)cc(I)c2cccnc12 [Diiodohydroxyquinoline] |  |  | 0.0178 | 0.041 | 0.0387 | 0.0213 | 2.39 | > 10 | > 10 | > 10 | > 10 | 0.0036 | 0.0667 | 0.705 | 0.0227 | > 20 | > 20 | > 20 | > 20 | > 20 | 
O=c1c(-c2ccccc2)c1-c1ccccc1 [Diphenylcyclopropenone] |  |  | 4.21 | > 20 | > 20 | 3.1 | 3.84 | 3.62 | > 10 | > 10 | > 10 | > 20 | 7.71 | > 20 | > 20 | > 20 | > 20 | > 20 | > 20 | > 20 | 
COC(=O)Nc1nc2ccc(Sc3ccccc3)cc2[nH]1 [Fenbendazole] |  |  |  |  |  |  |  |  |  |  |  |  |  |  |  | > 20 | > 20 | > 20 | > 20 | > 20 | IC50 ([1]; Homo sapiens; read-out: Anti-Angiogenesis): 0.207 µM; EC50 ([2]; Mus musculus, C2C12; read-out: Wnt Pathway): 0.438 µM; EC50 (INS-1E cells; Rattus norvegicus, INS-1E; read-out: Insulin Secretion): > 10 µM; EC50 (NCI-H716 cells; Homo sapiens, NCI-H716; read-out: GLP 1 Secretion): > 20 µM; EC50 (HeLa cells; Homo sapiens, HeLa, S2 Table, HeLa, 20 = no response at highest concentration): 0.195 µM; IC50 (DLD-1; Homo sapiens, DLD-1, basal, DLD-1, read-out: Basal_Viability ATP DLD-1): 0.0673 µM; IC50 (SW480; Homo sapiens, SW480, basal, SW480, read-out: Basal_Viability ATP SW480): > 20 µM; IC50 (HCT116; Homo sapiens, HCT-116, basal, HCT116, read-out: Basal_Viability ATP HCT116): 0.001 µM; IC50 ([3]; Homo sapiens, HCT-116, HCT116 pretreated with GSK3b inhibitor, read-out: GSK3b inh pretreated_Viability ATP HCT116): 0.003 µM; IC50 (Colo320; Homo sapiens; basal; Colo 320; read-out: Basal_Viability ATP Colo 320): > 20 µM; IC50 (HT-29; Homo sapiens; basal; HT-29; read-out: Basal_Viability ATP HT-29): > 20 µM; IC50 (RKO; Homo sapiens; basal; RKO; read-out: Basal_Viability ATP RKO): 0.001 µM; IC50 (SNU-C1; Homo sapiens, SNU-C1, basal, SNU-C1, read-out: Basal_Viability ATP SNU-C1): > 20 µM
O=c1[nH]c(=O)n([C@H]2C[C@H](O)[C@@H](CO)O2)cc1F [Floxuridine] |  |  | 0.001 | 0.001 | > 20 | > 20 | 0.0216 | > 10 | > 10 | > 10 | > 10 | > 20 | 0.001 | > 20 | 0.001 | > 20 | > 20 | > 20 | > 20 | > 20 | 
Cc1cc(O)c2c3c4c(cc(O)c13)C(C)(C)C(=O)c1c(O)cc(O)c(c1-4)C2=O [Heliomycin] |  |  | 0.0709 | 0.0775 | 0.332 | 0.082 | 0.101 | 1.07 | > 10 | > 10 | > 10 | 0.058 | 0.0573 | 3.01 | 0.0754 | > 20 | > 20 | > 20 | 6.9 | 1.97 | 
